Assay [1] deals with RAC-beta serine/threonine-protein kinase (Homo sapiens, UniProt P31751). In words: (§1) Akt2 TR-FRET assay: His-tagged human recombinant kinase full-length Akt2 expressed in insect cells and activated by PDK1 was purchased from Invitrogen (part number PV 3975). As substrate for the kinase reaction the biotinylated peptide biotin-Ahx-KKLNRTLSFAEPG (C-terminus in amide form) was used which can be purchased e.g. from the company Biosynthan GmbH (Berlin-Buch, Germany). For the assay 50 nl of a 100 fold concentrated solution of the test compound in DMSO was pipetted into a black low volume 384 well microtiter plate (Greiner Bio-One, Frickenhausen, Germany), 2 μl of a solution of Akt2 in assay buffer [50 mM TRIS/HCl pH 7.5, 5 mM MgCl2, 1 mM dithiothreitol, 0.02% (v/v) Triton X-100 (Sigma)] were added and the mixture was incubated for 15 min at 22 °C. to allow prebinding of the test compounds to the enzyme before the start of the kinase reaction. Then the kinase reaction was started by the addition of 3 μl of a solution of adenosine-tri-phosphate (ATP, 16.7 μM=>final conc. in the 5 μl assay volume is 10 μM) and substrate (1.67 μM=>final conc. in the 5 μl assay volume is 1 μM) in assay buffer and the resulting mixture was incubated for a reaction time of 60 min at 22 °C. […].

Assay [2] addresses RAC-alpha serine/threonine-protein kinase (Homo sapiens, UniProt P31749). The description is as §1, with “Akt1 TR-FRET” for “Akt2 TR-FRET”, “full-length Akt1” for “full-length Akt2”, “cells” for “cells and activated by PDK1”, “purchased form” for “purchased from”, “PV 3599).” for “PV 3975).”, “of Akt1” for “of Akt2”.

RAC-beta serine/threonine-protein kinase, sequence (P31751 whole entry): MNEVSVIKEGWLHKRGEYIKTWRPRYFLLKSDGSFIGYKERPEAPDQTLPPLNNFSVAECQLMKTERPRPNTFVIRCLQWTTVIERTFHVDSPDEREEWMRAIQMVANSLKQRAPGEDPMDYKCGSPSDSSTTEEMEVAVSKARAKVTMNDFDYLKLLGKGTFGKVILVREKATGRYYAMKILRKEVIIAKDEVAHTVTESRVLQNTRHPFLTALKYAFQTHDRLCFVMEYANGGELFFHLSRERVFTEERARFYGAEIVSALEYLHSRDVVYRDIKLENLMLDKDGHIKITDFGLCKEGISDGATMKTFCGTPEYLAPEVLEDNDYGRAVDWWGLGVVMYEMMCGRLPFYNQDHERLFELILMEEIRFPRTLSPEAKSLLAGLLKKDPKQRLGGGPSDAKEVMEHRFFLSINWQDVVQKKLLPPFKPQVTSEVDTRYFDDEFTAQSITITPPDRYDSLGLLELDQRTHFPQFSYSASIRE
RAC-alpha serine/threonine-protein kinase, sequence (P31749 whole entry): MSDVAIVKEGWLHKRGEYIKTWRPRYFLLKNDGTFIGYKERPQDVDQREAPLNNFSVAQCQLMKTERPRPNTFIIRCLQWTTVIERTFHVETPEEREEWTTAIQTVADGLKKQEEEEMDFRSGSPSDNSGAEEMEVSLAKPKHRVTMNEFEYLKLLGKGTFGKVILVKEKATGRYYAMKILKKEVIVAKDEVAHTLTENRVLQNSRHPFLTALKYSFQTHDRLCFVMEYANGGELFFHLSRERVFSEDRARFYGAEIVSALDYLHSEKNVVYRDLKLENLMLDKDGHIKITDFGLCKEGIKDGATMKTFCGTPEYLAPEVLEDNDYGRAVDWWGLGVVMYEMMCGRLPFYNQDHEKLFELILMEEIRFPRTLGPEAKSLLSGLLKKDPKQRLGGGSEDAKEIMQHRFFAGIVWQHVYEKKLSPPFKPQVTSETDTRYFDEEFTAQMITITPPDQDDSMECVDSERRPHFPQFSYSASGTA

As to `CCOC(=O)c1cn2c(-c3ccccc3)c(-c3ccc(C4(N)CCC4)cc3)nc2cn1`, the 50% inhibitory concentration (IC50) worked out at 130 nM in assay [1] and 100 nM in assay [2].

Values taken from ChEMBL document CHEMBL3886620, “Substituted imidazopyrazines as Akt kinase inhibitors” (2016).
